Test results published in patent publication US5886014A, “Benzimidazole derivatives, their preparation and their therapeutic use” (Sankyo Company, Limited, priority 1995, dated 1999).

How the values were obtained:
[1] = tested on: blood glucose level; test: Hypoglycemic activity in hyperglycemic KK mice (blood glucose level); type: in vivo, male mice of the KK strain; conditions: 1 mg/kg oral, 18 hours, vs solvent-only group
Method: The test animals used were hyperglycemic male mice of the KK strain, each having a body weight of at least 40 g. The compounds under test were mixed with a 1:1 by volume mixture of polyethylene glycol 400 and water. Each animal was orally administered a test compound in the amount shown in the following Table 6 and then allowed to feed freely for 18 hours. At the end of this time, blood was collected from the tail veins without anesthesia. The blood glucose level (BGL) was determined by means of a glucose analyzer (GL-101, manufactured by Mitsubishi Kasei Co. or a Glucoroder-F manufactured by Shino Test Co.). The hypoglycemic effect was calculated by the following equation: Hypoglycemic effect (%)=[(BGLs -BGLt)/BGLs ]×100 where: BGLs is the blood glucose level in the group administered a solvent only, but no active compound; and BGLt is the blood glucose level in the group administered a test compound. The results are shown in the following Table 6, in which each compound of the present invention is identified by the number of one of the following Examples in which its preparation is illustrated.

[2] = biological target: T1, Bovine lens aldose reductase (Bos taurus, UniProt P16116); test: Inhibition of Aldose reductase; type: biochemical; conditions: for inhibition at 5 µg/mL: read-out: Inhibition (%) at 5 μg/ml
T1 construct: Bovine lens aldose reductase was separated and partially purified; from tissue; host or cells: bovine lens
Method: Bovine lens aldose reductase was separated and partially purified by the method of S. Hyman and J. H. Kinoshita [J. Biol. Chem. 240, 877 (1965)] and K. Inagaki, I. Miwa and J. Okuda [Arch. Biochem. Biophys., 216, 337 (1982)], and its activity was determined photometrically by the method of Varma et al. [Biochem. Pharmac., 25, 2505 (1976)]. Inhibition of enzyme activity was measured for the compounds of the present invention at a concentration of 5 μg/ml, and the measured values were used to calculate the IC50 values.

IC50 [2] [nM]	inhibition at 5 µg/mL [2] [%]	Structure (SMILES)	Hypoglycemic effect (%) [1] [%]
2100	80.3	Cn1c(COc2ccc(CC3SC(=O)NC3=O)cc2)nc2ccccc21 (centres unmarked) [Example 1, 5-[4-(1-Methylbenzimidazol-2-ylmethoxy)benzyl]thiazolidine-2,4-dione]	36.2
–	–	COc1ccc2nc(COc3ccc(CC4SC(=O)NC4=O)cc3)n(C)c2c1 (centres unmarked) [Example 2, 5-[4-(6-Methoxy-1-methylbenzimidazol-2-ylmethoxy)benzyl]thiazolidine-2,4-dione]	27.2
3290	79.6	Cc1c(O)c(C)c2nc(COc3ccc(CC4SC(=O)NC4=O)cc3)n(C)c2c1C (centres unmarked) [Example 3, 5-[4-(5-Hydroxy-1,4,6,7-tetramethylbenzimidazol-2-ylmethoxy)benzyl]thiazolidine-2,4-dione]	11.2
–	–	Cc1c(O)c(C)c2nc(COc3ccc(CC4SC(=O)NC4=O)cc3)n(C)c2c1C.Cl (centres unmarked) [Example 4, 5-[4-(5-Hydroxy-1,4,6,7-tetramethylbenzimidazol-2-ylmethoxy)benzyl]thiazolidine-2,4-dione hydrochloride]	19.3
